Activity calls are given as the source filed them. The rule behind the calls is not given here.

The values below come from ChEMBL document CHEMBL4507285, “Data for DCP probe MRL-SYKi” (2021).

In test [1] the target is 5-hydroxytryptamine receptor 6 (Homo sapiens) (UniProt P50406). Particulars: Compound concentration 10.0 uM.
Another test concerns the target LIM domain kinase 1 (Homo sapiens, UniProt P53667). Briefly: Inhibition of LIMK1 at compound concentration of 10.0 uM using the ScanMax (DiscoverX).
Test [2] deals with T1, Tyrosine-protein kinase Fer (Homo sapiens, UniProt P16591). The following applies: Compound concentration 100.0 nM.
For test [3], the target named is Muscarinic acetylcholine receptor M1 (Homo sapiens) (UniProt P11229). Particulars: Compound concentration 10.0 uM.
The target in test [4] is MAP/microtubule affinity-regulating kinase 3 (Homo sapiens) (UniProt P27448). The following applies: Compound concentration 100.0 nM.
Test [5] has as its target Serine/threonine-protein kinase PLK2 (Homo sapiens) (UniProt Q9NYY3). The following applies: Compound concentration 100.0 nM.
For test [6], the target named is Atypical kinase COQ8B, mitochondrial (Homo sapiens) (UniProt Q96D53). The following applies: Compound concentration 100.0 nM.
Test [7] concerns Tyrosine-protein kinase ABL1 (Homo sapiens), P00519 [F317I]. The following applies: Compound concentration 100.0 nM.
A short description of test [8]: GPCRScan assay: inhibition of GABA/PBR. Also noted: species or system Rattus norvegicus; radioligand conc. used [nm] 0.3 – 2.0, parental cells brain tissue.
Test [9] concerns the target Rho-associated protein kinase 1 (Homo sapiens) (UniProt Q13464). Particulars: Compound concentration 100.0 nM.
Test [10] relates to Receptor-type tyrosine-protein kinase FLT3 (Homo sapiens), P36888 [UNDEFINED MUTATION]. The following applies: Compound concentration 100.0 nM.
Test [11] has as its target Discoidin domain-containing receptor 2 (Homo sapiens) (UniProt Q16832). The following applies: Compound concentration 100.0 nM.
The target of test [12] is Mitogen-activated protein kinase 8 (Homo sapiens) (UniProt P45983). Particulars: Compound concentration 100.0 nM.
For test [13], the system named is Tyrosine-protein kinase ABL1 (Homo sapiens), P00519 [Q252H]. The following applies: Compound concentration 100.0 nM.
Test [14] concerns the target Dual specificity tyrosine-phosphorylation-regulated kinase 1A (Homo sapiens) (UniProt Q13627). Particulars: Compound concentration 100.0 nM.
Test [15] concerns the target Cyclin-dependent kinase 14 (Homo sapiens) (UniProt O94921). The following applies: Compound concentration 100.0 nM.
The target of test [16] is Ribosomal protein S6 kinase alpha-2 (Homo sapiens) (UniProt Q15349). The following applies: Compound concentration 100.0 nM.
In test [17] the target is 5-hydroxytryptamine receptor 2B (Homo sapiens, UniProt P41595). Briefly: GPCRScan assay: inhibition of 5-HT2B. Also noted: radioligand conc. used [nm] 1.0 – 2.0, parental cells stable HEK.
For test [18], the target named is Mitogen-activated protein kinase kinase kinase 13 (Homo sapiens) (UniProt O43283). Particulars: Compound concentration 100.0 nM.
For test [19], the target named is Tyrosine-protein kinase Fgr (Homo sapiens, UniProt P09769). Briefly: Invitrogen kinase assay (FGR).
The target of test [20] is Tyrosine-protein kinase Fyn (Homo sapiens, UniProt P06241). The test can be described thus: Invitrogen kinase assay (FYN).
For test [21], the target named is 5-hydroxytryptamine receptor 1E (Homo sapiens) (UniProt P28566). The following applies: Compound concentration 10.0 uM.
Test [22] deals with Tyrosine-protein kinase JAK2 (Homo sapiens, UniProt O60674). Briefly: Invitrogen kinase assay (JAK2).
For test [23], the target named is Tyrosine-protein kinase ZAP-70 (Homo sapiens, UniProt P43403). The test can be described thus: Invitrogen kinase assay (ZAP70).
Test [24] deals with Tyrosine-protein kinase SYK (Homo sapiens, UniProt P43405). Briefly: Inhibition of SYK at compound concentration of 10.0 uM using the ScanMax (DiscoverX).
In test [25] the target is Sodium-dependent noradrenaline transporter (Homo sapiens, UniProt P23975). Briefly: GPCRScan assay: inhibition of NET. On the set-up: radioligand conc. used [nm] 1.3 – 5.0, parental cells stable HEK.
The target of test [26] is High affinity nerve growth factor receptor (Homo sapiens, UniProt P04629). The test can be described thus: Invitrogen kinase assay (NTRK1).
Test [27] addresses T1, Tyrosine-protein kinase Fer. The test can be described thus: Invitrogen kinase assay (FER).
Test [28] has as its target NT-3 growth factor receptor (Homo sapiens, UniProt Q16288). Briefly: Invitrogen kinase assay (NTRK3).
Test [29] has as its target Proto-oncogene tyrosine-protein kinase Src (Homo sapiens, UniProt P12931). Briefly: Invitrogen kinase assay (SRC).

Discoidin domain-containing receptor 2 (Homo sapiens), sequence (Q16832 whole entry, the tested form may be a part): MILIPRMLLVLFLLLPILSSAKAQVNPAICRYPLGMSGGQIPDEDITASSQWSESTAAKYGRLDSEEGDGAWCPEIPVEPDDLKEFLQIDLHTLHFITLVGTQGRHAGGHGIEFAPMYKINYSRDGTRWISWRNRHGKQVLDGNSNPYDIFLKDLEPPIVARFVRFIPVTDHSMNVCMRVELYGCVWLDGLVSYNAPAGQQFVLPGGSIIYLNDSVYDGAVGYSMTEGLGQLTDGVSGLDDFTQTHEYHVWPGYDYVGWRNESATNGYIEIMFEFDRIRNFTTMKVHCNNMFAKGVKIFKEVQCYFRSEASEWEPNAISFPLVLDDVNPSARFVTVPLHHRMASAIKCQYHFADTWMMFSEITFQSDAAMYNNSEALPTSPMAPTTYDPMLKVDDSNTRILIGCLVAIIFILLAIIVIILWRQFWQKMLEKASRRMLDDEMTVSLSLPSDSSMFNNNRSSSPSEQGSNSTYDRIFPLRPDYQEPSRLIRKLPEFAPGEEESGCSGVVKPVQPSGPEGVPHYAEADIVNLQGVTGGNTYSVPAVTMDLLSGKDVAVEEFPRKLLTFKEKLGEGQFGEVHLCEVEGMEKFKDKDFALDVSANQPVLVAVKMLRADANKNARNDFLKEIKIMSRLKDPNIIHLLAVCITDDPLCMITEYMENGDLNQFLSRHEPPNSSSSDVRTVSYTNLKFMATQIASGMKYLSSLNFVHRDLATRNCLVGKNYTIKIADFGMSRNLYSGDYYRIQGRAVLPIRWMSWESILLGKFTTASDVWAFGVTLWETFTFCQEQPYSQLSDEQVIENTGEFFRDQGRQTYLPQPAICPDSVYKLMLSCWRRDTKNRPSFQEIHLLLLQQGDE
MAP/microtubule affinity-regulating kinase 3 (Homo sapiens), sequence (P27448 whole entry, looked up): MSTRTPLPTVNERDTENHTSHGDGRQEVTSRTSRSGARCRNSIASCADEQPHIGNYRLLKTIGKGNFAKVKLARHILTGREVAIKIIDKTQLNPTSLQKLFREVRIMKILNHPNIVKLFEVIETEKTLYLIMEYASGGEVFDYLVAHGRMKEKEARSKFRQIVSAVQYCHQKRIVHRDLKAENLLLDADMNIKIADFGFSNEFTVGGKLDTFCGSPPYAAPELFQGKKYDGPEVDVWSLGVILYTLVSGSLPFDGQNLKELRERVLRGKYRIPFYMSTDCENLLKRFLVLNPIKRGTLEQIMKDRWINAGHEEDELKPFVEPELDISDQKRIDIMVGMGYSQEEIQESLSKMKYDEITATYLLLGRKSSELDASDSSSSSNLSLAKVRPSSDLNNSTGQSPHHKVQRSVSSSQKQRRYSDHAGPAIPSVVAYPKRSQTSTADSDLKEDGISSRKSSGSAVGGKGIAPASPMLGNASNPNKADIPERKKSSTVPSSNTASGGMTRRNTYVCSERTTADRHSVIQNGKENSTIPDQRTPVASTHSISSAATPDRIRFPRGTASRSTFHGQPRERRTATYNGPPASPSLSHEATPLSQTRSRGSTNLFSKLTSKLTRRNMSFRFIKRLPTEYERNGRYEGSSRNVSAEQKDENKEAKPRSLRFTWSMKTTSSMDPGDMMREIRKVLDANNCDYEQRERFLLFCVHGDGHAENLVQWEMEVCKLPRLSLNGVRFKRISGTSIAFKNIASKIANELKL
Serine/threonine-protein kinase PLK2 (Homo sapiens), sequence (Q9NYY3 whole entry, looked up): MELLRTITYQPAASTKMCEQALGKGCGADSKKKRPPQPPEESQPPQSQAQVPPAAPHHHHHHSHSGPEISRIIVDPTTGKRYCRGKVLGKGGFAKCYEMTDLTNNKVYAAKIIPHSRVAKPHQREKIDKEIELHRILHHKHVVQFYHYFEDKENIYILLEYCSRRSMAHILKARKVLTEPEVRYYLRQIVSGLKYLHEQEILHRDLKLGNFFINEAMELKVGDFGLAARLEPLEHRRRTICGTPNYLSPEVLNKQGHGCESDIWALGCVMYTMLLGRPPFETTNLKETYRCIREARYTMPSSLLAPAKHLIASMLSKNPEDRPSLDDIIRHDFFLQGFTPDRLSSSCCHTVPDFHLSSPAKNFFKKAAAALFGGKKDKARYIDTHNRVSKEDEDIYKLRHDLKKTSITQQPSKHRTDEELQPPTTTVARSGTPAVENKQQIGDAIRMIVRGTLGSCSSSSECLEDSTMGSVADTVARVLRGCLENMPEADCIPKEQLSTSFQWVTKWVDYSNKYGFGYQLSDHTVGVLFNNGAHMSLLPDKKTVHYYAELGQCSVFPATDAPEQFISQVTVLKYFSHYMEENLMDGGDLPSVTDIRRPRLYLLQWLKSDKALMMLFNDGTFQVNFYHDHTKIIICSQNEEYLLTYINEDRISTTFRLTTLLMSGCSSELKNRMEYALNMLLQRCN
Cyclin-dependent kinase 14 (Homo sapiens), sequence (O94921 whole entry): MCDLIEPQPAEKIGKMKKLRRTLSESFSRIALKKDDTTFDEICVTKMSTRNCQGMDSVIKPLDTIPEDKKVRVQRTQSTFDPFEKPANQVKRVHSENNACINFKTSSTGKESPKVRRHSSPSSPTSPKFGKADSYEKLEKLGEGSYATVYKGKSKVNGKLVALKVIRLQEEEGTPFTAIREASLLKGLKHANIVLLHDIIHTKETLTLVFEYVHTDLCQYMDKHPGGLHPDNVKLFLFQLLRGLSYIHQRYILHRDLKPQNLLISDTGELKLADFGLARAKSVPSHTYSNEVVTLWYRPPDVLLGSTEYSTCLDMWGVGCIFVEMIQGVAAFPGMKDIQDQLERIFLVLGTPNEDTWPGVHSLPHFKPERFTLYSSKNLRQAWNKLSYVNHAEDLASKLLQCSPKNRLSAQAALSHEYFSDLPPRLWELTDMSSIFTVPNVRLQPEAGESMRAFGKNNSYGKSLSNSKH
Atypical kinase COQ8B, mitochondrial (Homo sapiens), sequence (Q96D53 whole entry): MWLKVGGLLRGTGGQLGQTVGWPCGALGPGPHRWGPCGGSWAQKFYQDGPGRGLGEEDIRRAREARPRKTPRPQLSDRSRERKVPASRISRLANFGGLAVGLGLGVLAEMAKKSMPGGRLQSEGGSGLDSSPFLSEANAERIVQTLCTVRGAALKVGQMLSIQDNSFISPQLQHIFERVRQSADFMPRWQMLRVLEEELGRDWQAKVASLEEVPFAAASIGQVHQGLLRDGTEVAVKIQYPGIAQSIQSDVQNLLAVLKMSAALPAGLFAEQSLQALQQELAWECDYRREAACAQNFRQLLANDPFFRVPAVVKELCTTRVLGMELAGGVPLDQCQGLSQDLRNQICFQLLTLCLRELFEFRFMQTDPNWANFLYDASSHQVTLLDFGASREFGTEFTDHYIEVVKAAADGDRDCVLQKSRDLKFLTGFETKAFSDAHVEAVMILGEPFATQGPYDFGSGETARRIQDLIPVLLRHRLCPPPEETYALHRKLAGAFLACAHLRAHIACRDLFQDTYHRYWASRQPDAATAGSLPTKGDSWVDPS
Rho-associated protein kinase 1 (Homo sapiens), sequence (Q13464 2-1354 limits assumed): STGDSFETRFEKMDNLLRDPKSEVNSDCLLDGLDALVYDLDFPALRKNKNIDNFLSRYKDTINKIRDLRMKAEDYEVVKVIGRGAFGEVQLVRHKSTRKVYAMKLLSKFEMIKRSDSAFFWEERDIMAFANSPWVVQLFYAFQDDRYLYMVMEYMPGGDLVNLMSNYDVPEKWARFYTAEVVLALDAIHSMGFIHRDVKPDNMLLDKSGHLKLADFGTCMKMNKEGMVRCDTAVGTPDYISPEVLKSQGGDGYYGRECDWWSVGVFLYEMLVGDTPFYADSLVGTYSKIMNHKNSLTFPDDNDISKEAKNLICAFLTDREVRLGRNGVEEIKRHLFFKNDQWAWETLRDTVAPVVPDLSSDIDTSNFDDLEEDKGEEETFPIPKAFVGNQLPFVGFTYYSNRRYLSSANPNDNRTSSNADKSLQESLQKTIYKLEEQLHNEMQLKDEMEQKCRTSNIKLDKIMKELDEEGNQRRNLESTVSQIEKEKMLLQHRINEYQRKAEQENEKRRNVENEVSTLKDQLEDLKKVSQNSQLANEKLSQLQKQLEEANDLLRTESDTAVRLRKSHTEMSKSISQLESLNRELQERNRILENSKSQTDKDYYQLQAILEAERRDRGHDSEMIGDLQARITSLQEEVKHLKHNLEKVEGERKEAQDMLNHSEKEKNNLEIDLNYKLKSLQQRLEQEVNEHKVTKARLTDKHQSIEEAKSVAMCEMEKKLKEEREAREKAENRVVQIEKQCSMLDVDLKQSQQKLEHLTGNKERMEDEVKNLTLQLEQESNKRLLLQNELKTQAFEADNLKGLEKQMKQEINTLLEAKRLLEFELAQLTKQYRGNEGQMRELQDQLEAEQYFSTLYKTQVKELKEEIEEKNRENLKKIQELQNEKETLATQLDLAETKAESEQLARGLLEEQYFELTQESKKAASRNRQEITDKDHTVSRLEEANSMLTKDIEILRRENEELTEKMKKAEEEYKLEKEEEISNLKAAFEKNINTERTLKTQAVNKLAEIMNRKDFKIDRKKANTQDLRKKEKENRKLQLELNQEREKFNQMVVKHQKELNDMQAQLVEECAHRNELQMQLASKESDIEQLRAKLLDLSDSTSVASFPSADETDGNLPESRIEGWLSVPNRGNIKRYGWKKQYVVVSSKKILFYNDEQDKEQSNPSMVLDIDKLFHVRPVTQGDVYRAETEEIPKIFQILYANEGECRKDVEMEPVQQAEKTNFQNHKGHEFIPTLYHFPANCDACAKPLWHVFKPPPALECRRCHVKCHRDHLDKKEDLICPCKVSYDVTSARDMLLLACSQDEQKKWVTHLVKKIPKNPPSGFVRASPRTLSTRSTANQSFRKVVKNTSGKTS
5-hydroxytryptamine receptor 1E (Homo sapiens), sequence (P28566 whole entry): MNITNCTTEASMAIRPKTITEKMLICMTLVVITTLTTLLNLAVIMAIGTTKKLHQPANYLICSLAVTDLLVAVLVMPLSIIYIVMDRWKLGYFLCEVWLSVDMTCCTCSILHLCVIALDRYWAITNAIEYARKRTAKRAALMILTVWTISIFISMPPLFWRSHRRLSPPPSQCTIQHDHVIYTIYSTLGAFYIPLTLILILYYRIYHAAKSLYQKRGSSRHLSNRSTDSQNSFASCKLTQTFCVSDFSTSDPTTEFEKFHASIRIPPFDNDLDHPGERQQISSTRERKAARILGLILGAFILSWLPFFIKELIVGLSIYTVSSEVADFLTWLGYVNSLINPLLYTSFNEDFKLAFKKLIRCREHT

One may read the inhibition as the relative decrease from the control value, in per cent. In general, Kd refers to the concentration at which binding is half-saturated. By Ki is commonly meant the dissociation constant of the complex between target and ligand, obtained from inhibition or displacement. For orientation: pKi means the negative decadic logarithm of the Ki, by convention in mol/L. `Cc1ccc(-c2cnc([C@@]3(O)CC[C@H](C(=O)O)C(C)(C)C3)s2)cc1Nc1cccc(C(F)(F)F)n1` [MRL-SYKi-NC]: the inhibition in test [1] is 6.66%; in test [3], -6.43%. For the same molecule, at LIM domain kinase 1, the Kd was > 10000 nM (not active). In addition, the residual activity was 95.4% in test [2]; 100% in test [4]; 100% in test [5]; 98.7% in test [6]; 80.1% in test [7]; 100% in test [9]. The residual activity in test [10] was 56.9%; in [11], 100%; in [12] it was 63.7%; in test [13], 75.4%; in test [14], 81.4%; in test [15], 100%. Further, the residual activity in [16] and in test [18] was 100% each time. The Ki in [8] is 774 nM; in [17], 1060 nM. Moreover, the pKi in test [8] was determined as 6.11.
What is called IC50 is the concentration that inhibits the measured activity by half. As to `Cc1cc(Nc2nccc(C)n2)cc(-c2cnc([C@@]3(O)CC[C@H](C(=O)O)C(C)(C)C3)s2)c1` [MRL-SYKi], the residual activity in test [2] is 100%; in test [4] it was 100%; in test [5], 100%; in test [6], 99.4%; in [7] it was 100%; in [9], 70.7%. Also, the residual activity was 100% in test [10]; 100% in test [11]; 46.6% in [12]; 86.9% in [13]; 100% in [14]; 100% in test [15]. Further, the residual activity in test [16] and in test [18] was 100% each time. The IC50 in [19] is 185 nM (not active); in test [20] it was 205 nM (not active); in test [22], 242 nM (not active); in [23], 24 nM (active); in test [26], 105 nM (not active); in [27], 232 nM (not active). The values for the IC50 in test [28] and in test [29] were 120 nM (not active) and 100 nM (not active), respectively. The inhibition in test [21] is 11.4%. Further, the Kd in test [24] is 1.8 nM (active). Further, the Ki in test [25] is 7710 nM.
